Assays:
[1] = target: Human sodium/glucose co-transporter type 1 (SGLT1) (Homo sapiens (Human), UniProt P13866); assay: In vitro human SGLT1 inhibition assay (14C-AMG uptake); type: cell-based; parameters: key to SGLT1 (human SGLT1 IC50): ***: a value less than 0.01 μM; **: a value less than 0.1 μM; *: a value less than 1 μM; —: a value not measured or exceeding μM; conditions: HEK293 cells expressing human HA-SGLT1, 14C-AMG uptake
Outline: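 HEK293 cells stably expressing human HA-tagged SGLT1 (30,000/well, overnight) were washed into Na+-containing uptake buffer (140 mM NaCl, HEPES/Tris, 1 mg/mL BSA, pH 7.3). Cells then received compound plus 100 nCi 14C-AMG for 1–2 h at 37 °C; after washing, AMG uptake was quantified by scintillation counting.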

[2] = target: Human sodium/glucose co-transporter type 2 (SGLT2) (Homo sapiens (Human), UniProt P31639); assay: In vitro human SGLT2 inhibition assay (14C-AMG uptake); type: cell-based; parameters: key to SGLT2 (human SGLT2 IC50): ***: a value less than 0.01 μM; **: a value less than 0.1 μM; *: a value less than 1 μM; —: a value not measured or exceeding μM; conditions: HEK293 cells expressing human HA-SGLT2, 14C-AMG uptake
Outline: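 HEK293 cells stably expressing HA-tagged human SGLT2, seeded overnight, washed into Na+-containing HEPES/Tris uptake buffer with 1 mg/mL BSA, pH 7.3. Compound added, then 14C-AMG (100 nCi); 1-2 h at 37 °C, 5% CO2. Washed cells counted by scintillation for 14C-AMG uptake.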

Chain of Human sodium/glucose co-transporter type 2 (SGLT2) (P31639 whole entry): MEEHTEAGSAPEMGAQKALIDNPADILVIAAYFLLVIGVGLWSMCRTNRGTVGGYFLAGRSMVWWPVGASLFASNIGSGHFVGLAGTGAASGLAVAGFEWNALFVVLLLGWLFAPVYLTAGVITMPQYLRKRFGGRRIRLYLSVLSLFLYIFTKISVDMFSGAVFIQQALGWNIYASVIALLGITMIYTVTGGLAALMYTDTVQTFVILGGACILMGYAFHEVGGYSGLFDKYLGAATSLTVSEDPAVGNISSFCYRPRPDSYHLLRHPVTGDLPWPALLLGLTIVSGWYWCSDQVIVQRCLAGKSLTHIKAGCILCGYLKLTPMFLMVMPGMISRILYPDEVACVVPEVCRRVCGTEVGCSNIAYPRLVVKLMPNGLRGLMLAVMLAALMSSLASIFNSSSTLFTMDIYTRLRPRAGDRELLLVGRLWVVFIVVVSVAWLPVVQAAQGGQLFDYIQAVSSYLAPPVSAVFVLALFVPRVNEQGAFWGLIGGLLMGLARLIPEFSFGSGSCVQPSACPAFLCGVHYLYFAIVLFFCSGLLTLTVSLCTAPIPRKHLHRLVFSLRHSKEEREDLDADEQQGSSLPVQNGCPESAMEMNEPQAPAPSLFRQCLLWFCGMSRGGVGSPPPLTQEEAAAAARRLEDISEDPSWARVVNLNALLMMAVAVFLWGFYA
Chain of Human sodium/glucose co-transporter type 1 (SGLT1) (P13866 whole entry): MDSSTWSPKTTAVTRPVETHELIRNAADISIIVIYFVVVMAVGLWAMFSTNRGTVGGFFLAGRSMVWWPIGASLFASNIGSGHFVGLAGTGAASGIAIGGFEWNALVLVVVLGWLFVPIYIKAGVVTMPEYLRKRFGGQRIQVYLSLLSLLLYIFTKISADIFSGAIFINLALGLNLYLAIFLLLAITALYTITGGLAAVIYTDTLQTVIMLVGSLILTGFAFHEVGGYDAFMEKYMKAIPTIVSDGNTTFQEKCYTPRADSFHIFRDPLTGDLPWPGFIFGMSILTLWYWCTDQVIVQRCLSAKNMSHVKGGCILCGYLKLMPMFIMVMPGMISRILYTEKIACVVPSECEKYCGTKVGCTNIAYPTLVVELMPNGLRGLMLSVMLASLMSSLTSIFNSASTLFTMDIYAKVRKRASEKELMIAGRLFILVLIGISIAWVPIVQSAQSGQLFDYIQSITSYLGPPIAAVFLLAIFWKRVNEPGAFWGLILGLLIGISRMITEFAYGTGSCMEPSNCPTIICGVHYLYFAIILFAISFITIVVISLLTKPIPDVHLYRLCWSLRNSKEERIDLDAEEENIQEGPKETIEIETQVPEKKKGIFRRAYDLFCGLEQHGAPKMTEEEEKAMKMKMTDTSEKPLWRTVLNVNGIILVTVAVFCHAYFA

SMILES | SGLT1 (human SGLT1 IC50) [1] | IC50 [2] [µM] | IC50 [1] [µM] | SGLT2 (human SGLT2 IC50) [2]
CS[C@H]1O[C@@H](c2ccc(C)c(Cc3ccc(CCCC#N)cc3)c2)[C@H](O)[C@@H](O)[C@@H]1O [4-(4-(2-methyl-5-((2S,3R,4R,5S,6R)-3,4,5-trihydroxy-6-(methylthio)tetrahydro-2H-pyran-2-yl)benzyl)phenyl)butanenitrile] | — | < 0.1 |  | 
CS[C@H]1O[C@@H](c2ccc(C)c(Cc3ccc(CCCCNC(=O)N4CCN(C)CC4)cc3)c2)[C@H](O)[C@@H](O)[C@@H]1O [4-methyl-N-(4-(4-(2-methyl-5-((2S,3R,4R,5S,6R)-3,4,5-trihydroxy-6-(methylthio)tetrahydro-2H-pyran-2-yl)benzyl)phenyl)butyl)piperazine-1-carboxamide] |  | < 0.01 | < 0.1 | 
CS[C@H]1O[C@@H](c2ccc(Cl)c(Cc3ccc(OCCN)cc3)c2)[C@H](O)[C@@H](O)[C@@H]1O [(2S,3R,4R,5S,6R)-2-(3-(4-(2-aminoethoxy)benzyl)-4-chlorophenyl-6-(methylthio)tetrahydro-2H-pyran-3,4,5-triol] |  | < 0.01 | < 0.1 | 
CS[C@H]1O[C@@H](c2ccc(C)c(Cc3ccc(OCCCNCC(C)(C)CN(C)C)cc3)c2)[C@H](O)[C@@H](O)[C@@H]1O [(2S,3R,4R,5S,6R)-2-(3-(4-(3-((3-(dimethylamino)-2,2-dimethylpropyl)amino)propoxy)benzyl)-4-methylphenyl)-6-(methylthio)tetrahydro-2H-pyran-3,4,5-triol] |  | < 0.01 | < 0.01 | 
CS[C@H]1O[C@@H](c2ccc(C)c(Cc3ccc(CCCCNC(CO)(CO)CO)cc3)c2)[C@H](O)[C@@H](O)[C@@H]1O [(2S,3R,4R,5S,6R)-2-(3-(4-(4-((1,3-dihydroxy-2-(hydroxymethyl)propan-2-yl)amino)butyl)benzyl)-4-methylphenyl)-6-(methylthio)tetrahydro-2H-pyran-3,4,5-triol] |  | < 0.01 | < 0.01 | 
CS[C@H]1O[C@@H](c2ccc(C)c(Cc3ccc(CCCCN(CC(O)CO)CC(O)CO)cc3)c2)[C@H](O)[C@@H](O)[C@@H]1O (stereo partly drawn) [(2S,3R,4R,5S,6R)-2-(3-(4-(4-(bis(2,3-dihydroxypropyl)amino)butyl)benzyl)-4-methylphenyl)-6-(methylthio)tetrahydro-2H-pyran-3,4,5-triol] |  | < 0.01 | < 0.01 | 
CCN(CC)CCCCc1ccc(Cc2cc([C@@H]3O[C@H](SC)[C@@H](O)[C@H](O)[C@H]3O)ccc2C)cc1 [(2S,3R,4R,5S,6R)-2-(3-(4-(4-(diethylamino)butyl)benzyl)-4-methylphenyl)-6-(methylthio)tetrahydro-2H-pyran-3,4,5-triol] |  | < 0.01 | < 0.01 | 
CS[C@H]1O[C@@H](c2ccc(C)c(Cc3ccc(CCCCCN)cc3)c2)[C@H](O)[C@@H](O)[C@@H]1O [(2S,3R,4R,5S,6R)-2-(3-(4-(5-aminopentyl)benzyl)-4-methylphenyl)-6-(methylthio)tetrahydro-2H-pyran-3,4,5-triol] |  | < 0.01 | < 0.1 | 
CCOc1ccc(Cc2cc([C@@H]3O[C@H](SC)[C@@H](O)[C@H](O)[C@H]3O)ccc2C)cc1 [(2S,3R,4R,5S,6R)-2-(3-(4-ethoxybenzyl)-4-methylphenyl)-6-(methylthio)tetrahydro-2H-pyran-3,4,5-triol] |  | < 0.01 | < 0.1 | 
COc1ccc(Cc2cc([C@@H]3O[C@H](SC)[C@@H](O)[C@H](O)[C@H]3O)ccc2OC(F)(F)F)cc1 [(2S,3R,4R,5S,6R)-2-(3-(4-methoxybenzyl)-4-(trifluoromethoxy)phenyl)-6-(methylthio)tetrahydro-2H-pyran-3,4,5-triol] | — |  |  | —
CCN(CC)CCOc1ccc(Cc2cc([C@@H]3O[C@H](SC)[C@@H](O)[C@H](O)[C@H]3O)ccc2Cl)cc1 [(2S,3R,4R,5S,6R)-2-(4-chloro-3-(4-(2-(diethylamino)ethoxy)benzyl)phenyl)-6-(methylthio)tetrahydro-2H-pyran-3,4,5-triol] |  | < 0.01 | < 0.01 | 

The remaining lines, values ahead:

SGLT1 (human SGLT1 IC50) [1] | IC50 [2] [µM] | IC50 [1] [µM] | SGLT2 (human SGLT2 IC50) [2] | SMILES
 | < 0.01 | < 0.1 |  | CS[C@H]1O[C@@H](c2ccc(C)c(Cc3ccc(CCCC(=O)O)cc3)c2)[C@H](O)[C@@H](O)[C@@H]1O [4-(4-(2-methyl-5-((2S,3R,4R,5S,6R)-3,4,5-trihydroxy-6-(methylthio)tetrahydro-2H-pyran-2-yl)benzyl)phenyl)butanoic acid]
 | < 0.01 | < 0.01 |  | CS[C@H]1OC(c2ccc(C)c(Cc3ccc(OCCNC(=O)N4CCN(C)CC4)cc3)c2)[C@H](O)[C@@H](O)[C@@H]1O (stereo partly drawn) [4-methyl-N-(2-(4-(2-methyl-5-((3R,4R,5S,6R)-3,4,5-trihydroxy-6-(methylthio)tetrahydro-2H-pyran-2-yl)benzyl)phenoxy)ethyl)piperazine-1-carboxamide]
 | < 0.01 | < 0.1 |  | CS[C@H]1O[C@@H](c2ccc(C)c(Cc3ccc(CCCCC(=O)N4CCN(C)CC4)cc3)c2)[C@H](O)[C@@H](O)[C@@H]1O [5-(4-(2-methyl-5-((2S,3R,4R,5S,6R)-3,4,5-trihydroxy-6-(methylthio)tetrahydro-2H-pyran-2-yl)benzyl)phenyl)-1-(4-methylpiperazin-1-yl)pentan-1-one]
 | < 0.1 | < 0.1 |  | CS[C@H]1O[C@@H](c2ccc(C)c(Cc3ccc(OCC(O)CO)cc3)c2)[C@H](O)[C@@H](O)[C@@H]1O (stereo partly drawn) [(2S,3R,4R,5S,6R)-2-(3-(4-(2,3-dihydroxypropoxy)benzyl)-4-methylphenyl)-6-(methylthio)tetrahydro-2H-pyran-3,4,5-triol]
 | < 0.01 | < 0.01 |  | COCCOCCOc1ccc(Cc2cc([C@@H]3O[C@H](SC)[C@@H](O)[C@H](O)[C@H]3O)ccc2C)cc1 [(2S,3R,4R,5S,6R)-2-(3-(4-(2-(2-methoxyethoxy)ethoxy)benzyl)-4-methylphenyl)-6-(methylthio)tetrahydro-2H-pyran-3,4,5-triol]
 | < 0.01 | < 0.01 |  | CS[C@H]1O[C@@H](c2ccc(C)c(Cc3ccc(OCCNC(C)(C)CO)cc3)c2)[C@H](O)[C@@H](O)[C@@H]1O [(2S,3R,4R,5S,6R)-2-(3-(4-(2-((1-hydroxy-2-methylpropan-2-yl)amino)ethoxy)benzyl)-4-methylphenyl)-6-(methylthio)tetrahydro-2H-pyran-3,4,5-triol]
 | < 0.01 | < 0.1 |  | CS[C@H]1O[C@@H](c2ccc(C)c(Cc3ccc(CCCCNC(C)(C)CO)cc3)c2)[C@H](O)[C@@H](O)[C@@H]1O [(2S,3R,4R,5S,6R)-2-(3-(4-(4-((1-hydroxy-2-methylpropan-2-yl)amino)butyl)benzyl)-4-methylphenyl)-6-(methylthio)tetrahydro-2H-pyran-3,4,5-triol]
 | < 0.01 | < 0.1 |  | CS[C@H]1O[C@@H](c2ccc(C)c(Cc3ccc(CCCCNCC(O)CO)cc3)c2)[C@H](O)[C@@H](O)[C@@H]1O (stereo partly drawn) [(2S,3R,4R,5S,6R)-2-(3-(4-(4-((2,3-dihydroxypropyl)amino)butyl)benzyl)-4-methylphenyl)-6-(methylthio)tetrahydro-2H-pyran-3,4,5-triol]
 | < 0.01 | < 0.01 |  | CS[C@H]1O[C@@H](c2ccc(C)c(Cc3ccc(CCCCN)cc3)c2)[C@H](O)[C@@H](O)[C@@H]1O [(2S,3R,4R,5S,6R)-2-(3-(4-(4-aminobutyl)benzyl)-4-methylphenyl)-6-(methylthio)tetrahydro-2H-pyran-3,4,5-triol]
 | < 0.01 | < 0.1 |  | CS[C@H]1O[C@@H](c2ccc(C)c(Cc3ccc(CCCCCNCc4ccccc4)cc3)c2)[C@H](O)[C@@H](O)[C@@H]1O [(2S,3R,4R,5S,6R)-2-(3-(4-(5-(benzylamino)pentyl)benzyl)-4-methylphenyl)-6-(methylthio)tetrahydro-2H-pyran-3,4,5-triol]
 | < 0.01 | < 0.1 |  | CS[C@H]1O[C@@H](c2ccc(C)c(Cc3ccc(CCCCCN(C[C@H](O)CO)C[C@H](O)CO)cc3)c2)[C@H](O)[C@@H](O)[C@@H]1O [(2S,3R,4R,5S,6R)-2-(3-(4-(5-(bis((S)-2,3-dihydroxypropyl)amino)pentyl)benzyl)-4-methylphenyl)-6-(methylthio)tetrahydro-2H-pyran-3,4,5-triol]
 | < 0.01 | < 0.1 |  | CS[C@H]1O[C@@H](c2ccc(C)c(Cc3ccc(Cl)cc3)c2)[C@H](O)[C@@H](O)[C@@H]1O [(2S,3R,4R,5S,6R)-2-(3-(4-chlorobenzyl)-4-methylphenyl)-6-(methylthio)tetrahydro-2H-pyran-3,4,5-triol]
 | < 0.01 | < 0.1 |  | COCCOCCOc1ccc(Cc2cc([C@@H]3O[C@H](SC)[C@@H](O)[C@H](O)[C@H]3O)ccc2Cl)cc1 [(2S,3R,4R,5S,6R)-2-(4-chloro-3-(4-(2-(2-methoxyethoxy)ethoxy)benzyl)phenyl)-6-(methylthio)tetrahydro-2H-pyran-3,4,5-triol]
 | < 0.01 | < 0.1 |  | CS[C@H]1O[C@@H](c2ccc(Cl)c(Cc3ccc(OCCNC4CCNCC4)cc3)c2)[C@H](O)[C@@H](O)[C@@H]1O [(2S,3R,4R,5S,6R)-2-(4-chloro-3-(4-(2-(piperidin-4-ylamino)ethoxy)benzyl)phenyl)-6-(methylthio)tetrahydro-2H-pyran-3,4,5-triol]

Source: patent US9688710B2, “Inhibitors of sodium glucose cotransporter 1” (LEXICON PHARMACEUTICALS, INC., priority 2012, dated 2017)
